Experimental data reported in patent CN114573468A, “蛋白抑制剂及其应用” (priority 2022, dated 2022).

Legend:
[1] = target: T1, recombinant human legumain (重组人legumain蛋白(rhLegumain)) (Homo sapiens, UniProt Q99538); experiment: AEP activity assay with recombinant human legumain, substrate Z-AAN-AMC; format: biochemical; conditions: Fig. 2E
T1 construct: 30ng/μl活化的rhLegumain在测定缓冲液; purchased 2199-CY
T1 sequence (Q99538 18-323 limits assumed): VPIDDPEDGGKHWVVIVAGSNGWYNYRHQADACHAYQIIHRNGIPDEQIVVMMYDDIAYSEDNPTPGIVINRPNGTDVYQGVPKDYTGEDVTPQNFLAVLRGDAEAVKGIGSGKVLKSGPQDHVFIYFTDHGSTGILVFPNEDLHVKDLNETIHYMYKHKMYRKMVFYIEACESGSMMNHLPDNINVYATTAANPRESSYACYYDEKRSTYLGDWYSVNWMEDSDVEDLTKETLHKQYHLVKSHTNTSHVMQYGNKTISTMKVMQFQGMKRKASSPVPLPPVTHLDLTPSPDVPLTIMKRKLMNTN

[2] = target: T2, endogenous AEP of 293L cells (293L细胞, AEP的内源性酶活性) (Homo sapiens, UniProt Q99538); experiment: Endogenous AEP activity in cell lysate and medium of 293L cells; format: cell-based; conditions: 293L cells cultured with different doses of inhibitor
T2 construct: 验证抑制剂是否能有效抑制AEP的内源性酶活性; endogenous in cells; host or cells: 293L cells
T2 sequence (Q99538 18-433): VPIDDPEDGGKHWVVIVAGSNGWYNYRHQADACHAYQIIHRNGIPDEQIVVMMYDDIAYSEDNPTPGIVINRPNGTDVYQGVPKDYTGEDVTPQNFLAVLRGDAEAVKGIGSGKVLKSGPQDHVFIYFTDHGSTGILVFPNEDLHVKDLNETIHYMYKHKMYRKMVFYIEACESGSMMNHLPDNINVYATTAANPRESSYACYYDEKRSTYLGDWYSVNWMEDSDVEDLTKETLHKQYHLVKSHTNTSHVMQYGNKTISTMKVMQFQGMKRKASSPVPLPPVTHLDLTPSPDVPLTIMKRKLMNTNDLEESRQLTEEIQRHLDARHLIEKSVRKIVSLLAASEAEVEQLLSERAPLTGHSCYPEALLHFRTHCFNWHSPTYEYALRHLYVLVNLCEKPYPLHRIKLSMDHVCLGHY

[3] = system: AEP (breast cancer 4T1.2 cells, 乳腺癌4T1.2细胞); experiment: Immunoblot of AEP expression in 4T1.2 cells; format: cell-based, mouse; conditions: 1 μM, 96h, vs control (0nM), p<0.05
[4] = system: E-cadherin; experiment: Immunoblot of E-cadherin expression in 4T1.2 cells (EMT); format: cell-based, mouse; conditions: 100nM and 1μM, 96h
[5] = system: Snail; experiment: Immunoblot of Snail expression in 4T1.2 cells (EMT); format: cell-based, mouse; conditions: 100nM and 1μM, 96h
[6] = system: MMP-9; experiment: Immunoblot of MMP-9 expression in 4T1.2 cells (EMT); format: cell-based, mouse; conditions: 100nM and 1μM, 96h
[7] = system: 4T1.2 cells (4T1.2细胞); experiment: Cell scratch (migration) assay, 4T1.2; format: cell-based, mouse; conditions: 4T1.2, scratch assay, concentration-dependent
[8] = system: breast cancer MDA-MB-231 cells (乳腺癌MDA-MB-231细胞); experiment: Cell scratch (migration) assay, MDA-MB-231; format: cell-based, human; conditions: MDA-MB-231, scratch assay, concentration-dependent
[9] = system: breast cancer 4T1.2 cells (乳腺癌4T1.2细胞); experiment: Transwell Matrigel invasion assay, 4T1.2; format: cell-based, mouse; conditions: 4T1.2, Transwell Matrigel, 12h, concentration-dependent
[10] = system: breast cancer 4T1.2 cells (乳腺癌4T1.2细胞); experiment: Survival of BALB/C mice with subcutaneous 4T1.2 tumors; format: in vivo, mouse; conditions: inhibitor given in combination with 0.44mg/ml epirubicin
[11] = system: osteoclasts (破骨细胞); experiment: TRAP staining (osteoclasts) of bone sections in mouse bone metastasis model; format: in vivo; conditions: Fig. 7N
[12] = system: human breast cancer cells MDA-MB-231 (人乳腺癌细胞MDA-MB-231)
[13] = system: mouse highly metastatic breast cancer cells 4T1.2 (小鼠高转移性乳腺癌细胞4T1.2)
[14] = system: breast cancer 4T1.2-luc cells (乳腺癌4T1.2-luc细胞); experiment: Bioluminescence imaging in mouse breast cancer bone metastasis model; format: in vivo; conditions: 0.44mg/ml epirubicin alone, i.p., 5ml/kg, every 3 days
[15] = system: breast cancer 4T1.2-luc cells (乳腺癌4T1.2-luc细胞); experiment: X-ray CT of hind limb bones in mouse bone metastasis model; format: in vivo; conditions: 0.44mg/ml epirubicin alone, i.p.
[16] = system: breast cancer 4T1.2-luc cells (乳腺癌4T1.2-luc细胞); experiment: HE staining of bone sections in mouse bone metastasis model; format: in vivo; conditions: 0.44mg/ml epirubicin alone; Fig. 7H

In the case of “CH2CH[N(CH2CH3)2]CON(COCH2Cl)CH2CONH2 [化合物①]”, the “AEP enzyme activity over time” value ([1]; 100nM inhibitor vs control (0nM), p<0.05, pH5.0) is reported as “显著抑制”, the “AEP enzyme activity over time” value ([1]; 1 μM inhibitor vs control (0nM), p<0.01, pH5.0) is reported as “显著抑制” and the “AEP enzyme activity in cell culture medium” value [2] is reported as “能够以剂量依赖性方式抑制”. The “decrease of AEP expression” value [3] was 82.31%, the E-cadherin expression [4] was “表达上调” and the Snail expression [5] was “表达下调”. For the same compound, the MMP-9 expression [6] was “表达下调”, the cell migration ability [7] was “减弱” and the cell migration ability [8] was “减弱”. The “number of invading cells” value [9] was “减少各细胞的侵袭细胞数目”, the “survival of tumor mice” value [10] was “明显延长” and the “increase in osteoclast number in the control group compared with the 2 inhibitor-treated groups” value ([11]; control (PBS) relative to groups given epirubicin + inhibitor) was 4 倍 (fold). The “cell viability / growth compared with control” value [12] was “与对照组相差很小” and the “cell viability / growth compared with control” value [13] was “与对照组相差很小”.

For COc1cccc2c1C(=O)c1c(O)c3c(c(O)c1C2=O)C[C@@](O)(C(=O)CO)C[C@@H]3O[C@H]1C[C@H](N)[C@@H](O)[C@H](C)O1 [表柔比星], the “bone tumor growth (bioluminescence)” value [14] was “所有小鼠的胫骨近端、股骨或背侧脊柱都有肿瘤生长”, the “bone structure and bone erosion (X-ray CT)” value [15] was “骨结构不完整,存在骨侵蚀” and the “tumor cell invasion of bone tissue (HE staining)” value [16] was “肿瘤细胞突破了骨组织,呈现侵袭状”. For the same compound, the “increase in osteoclast number in the epirubicin group compared with the 2 inhibitor-treated groups” value ([11]; 0.44mg/ml epirubicin alone) was 3.6 倍 (fold).
